Laboratory results: patent US10023558B2, “Compounds” (CHIESI FARMACEUTICI S.P.A., priority 2016, dated 2018)
pIC50: −log10 of the molar value.

Molecular target: T1, human neutrophil elastase (HNE) (Homo sapiens, UniProt P08246)
T1 construct: purchased Sigma E8140
T1 sequence (P08246 30-247 limits assumed): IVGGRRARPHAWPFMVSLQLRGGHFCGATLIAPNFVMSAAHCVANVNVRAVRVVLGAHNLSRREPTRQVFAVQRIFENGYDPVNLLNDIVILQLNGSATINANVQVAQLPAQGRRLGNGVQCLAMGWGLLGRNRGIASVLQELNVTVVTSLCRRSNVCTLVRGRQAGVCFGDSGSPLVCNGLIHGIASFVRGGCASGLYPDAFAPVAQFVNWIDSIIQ
Assay: HNE Enzyme Assay (fluorogenic peptide substrate MeOSuc-Ala-Ala-Pro-Val-AMC)
Assay type: biochemical
Settings: human leukocyte elastase 0.00072 U/mL, substrate 100 μM, 25° C., 30 minutes, at least two separate experiments; read-out: HNE inhibition (IC50 values)
Outline: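 Human leukocyte elastase (0.00072 U/mL) with 100 μM MeOSuc-AAPV-AMC in Tris pH 7.5 buffer with NaCl, CaCl2, Brij-35, 1% DMSO, 30 min at 25° C, stopped with soybean trypsin inhibitor. AMC fluorescence (ex 380/em 460 nm); IC50 from concentration-response as % inhibition of control, at least two experiments.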

| pIC50 | Structure (SMILES) |
| --- | --- |
| > 9.00 | Cc1c(-c2ccnn2-c2ccc(C#N)cc2)n(C(=O)N[C@H]2CC[C@H](C(=O)N3CCC([N+](C)(C)C)CC3)CC2)c(=O)n1-c1cccc(C(F)(F)F)c1 [Example 88, [1-(Trans-4-{[5-[2-(4-cyano-phenyl)-2H-pyrazol-3-yl]-4-methyl-2-oxo-3-(3-trifiuoromethyl-phenyl)-2,3-dihydro-imidazole-1-carbonyl]-amino}-cyclohexanecarbonyl)-piperidin-4-yl]-trimethyl-ammonium benzene sulfonate] |
| > 9.00 | Cc1c(-c2ccnn2-c2ccc(C#N)cc2)n(C(=O)N[C@H]2CC[C@H](C(=O)N(C)CC[N+](C)(C)C)CC2)c(=O)n1-c1cccc(C(F)(F)F)c1 [Example 89, {2-[(Trans-4-{[5-[2-(4-cyano-phenyl)-2H-pyrazol-3-yl]-4-methyl-2-oxo-3-(3-trifluoromethyl-phenyl)-2,3-dihydro-imidazole-1-carbonyl]-amino}-cyclohexanecarbonyl)-methyl-amino]-ethyl}-trimethyl-ammonium benzene sulfonate] |
| > 9.00 | Cc1c(-c2ccnn2-c2ccc(C#N)cc2)n(C(=O)N[C@H]2CC[C@H](C(=O)NC3CC[N+](C)(C)CC3)CC2)c(=O)n1-c1cccc(C(F)(F)F)c1 [Example 90, 4-[(Trans-4-{[5-[2-(4-cyano-phenyl)-2H-pyrazol-3-yl]-4-methyl-2-oxo-3-(3-trifluoromethyl-phenyl)-2,3-dihydro-imidazole-1-carbonyl]-amino}-cyclohexanecarbonyl)-amino]-1,1-dimethyl-piperidinium benzene sulfonate] |
| > 9.00 | Cc1c(-c2ccnn2-c2ccc(C#N)cc2)n(C(=O)N[C@@H](C)C(=O)N(C)C2CC[N+](C)(C)CC2)c(=O)n1-c1cccc(C(F)(F)F)c1 [Example 91, 4-[((S)-2-{[5-[2-(4-Cyano-phenyl)-2H-pyrazol-3-yl]-4-methyl-2-oxo-3-(3-trifluoromethyl-phenyl)-2,3-dihydro-imidazole-1-carbonyl]-amino}-propionyl)-methyl-amino]-1,1-dimethyl-piperidinium benzene sulfonate] |
| > 9.00 | Cc1c(-c2ccnn2-c2ccc(C#N)cc2)n(C(=O)NC2CCN(C(=O)NCC[N+](C)(C)C)CC2)c(=O)n1-c1cccc(C(F)(F)F)c1 [Example 92, {2-[(4-{[5-[2-(4-Cyano-phenyl)-2H-pyrazol-3-yl]-4-methyl-2-oxo-3-(3-trifluoromethyl-phenyl)-2,3-dihydro-imidazole-1-carbonyl]-amino}-piperidine-1-carbonyl)-amino]-ethyl}-trimethyl-ammonium benzene sulfonate] |
| > 9.00 | Cc1c(-c2ccnn2-c2ccc(C#N)cc2)n(C(=O)NC2CCN(C(=O)OCC[N+](C)(C)C)CC2)c(=O)n1-c1cccc(C(F)(F)F)c1 [Example 93, [2-(4-{[5-[2-(4-Cyano-phenyl)-2H-pyrazol-3-yl]-4-methyl-2-oxo-3-(3-trifluoromethyl-phenyl)-2,3-dihydro-imidazole-1-carbonyl]-amino}-piperidine-1-carbonyloxy)-ethyl]-trimethyl-ammonium benzene sulfonate] |
| > 9.00 | Cc1c(-c2nccn2-c2ccc(C#N)cc2)n(C(=O)NC2CCN(C(=O)C[N+](C)(C)C)CC2)c(=O)n1-c1cccc(C(F)(F)F)c1 [Example 94, [2-(4-{[1-(4-Cyano-phenyl)-5′-methyl-2′-oxo-1′-(3-trifluoromethyl-phenyl)-1′,2′-dihydro-1H-[2,4′]biimidazolyl-3′-carbonyl]-amino}-piperidin-1-yl)-2-oxo-ethyl]-trimethyl-ammonium benzene sulfonate] |
